From PMC12888861, “Antibacterial activity of enmetazobactam against Acinetobacter spp.: a molecular dissection of mechanism of action and resistance determinants” (Antimicrobial Agents and Chemotherapy, 2025)

Test system: carbapenem-resistant A. baumannii (CRAB) isolates (n = 67)
Experiment: MIC, broth microdilution (EUCAST), carbapenem-resistant A. baumannii isolates
Format: cell-based, Acinetobacter baumannii
Conditions: ETZ fixed 8 mg/L in combinations; for MIC: Acinetobacter baumannii
Text: The bacterial strains used in this study comprised 208 clinical isolates from the Spanish National Acinetobacter spp. 2020 Multicenter Collection, which was previously characterized in detail by our research group, including whole-genome sequencing, phylogenetics studies, clonal dynamics, and resistance mechanisms ([2], [29]). Additionally, a collection of A. baumannii ATCC 17978 transformants coding the blaOXA-23, blaOXA-24/40, blaOXA-51, blaOXA-58, blaOXA-143, and blaOXA-201 genes, previously constructed and described by our group ([30]), was used to determine the activity of enmetazobactam against strains carrying the main CHDLs of A. baumannii.
The antimicrobial susceptibility of the 208 Acinetobacter spp. isolates was assessed using the broth microdilution method, as described in the European Committee on Antimicrobial Susceptibility Testing (EUCAST) v.15 guidelines (http://www.eucast.org/clinical_breakpoints). […] MICs for enmetazobactam alone were assessed as well. […] Subsequently, MIC testing was also conducted with a collection of A. baumannii ATCC 17978 transformants expressing clinically relevant OXA-like carbapenemase genes.
The A. baumannii ATCC 19606 strain was used as the reference strain in all susceptibility experiments, in duplicate assays. Antibiotics were purchased from Sigma-Aldrich, except enmetazobactam and durlobactam, which were obtained from Advanz Pharma and MedChemExpress, respectively.

C[C@@H](O)[C@H]1C(=O)N2C(C(=O)O)=C(SCCN=CN)C[C@H]12 [imipenem]
MIC (isolate Ab56, ST 1, ADC-75, OXA-69, OXA-23): 16 µg/mL
MIC (isolate Ab83, ST 25, ADC-5, OXA-64, OXA-23): 32 µg/mL
MIC (isolate Ab109, ST 1, ADC-75, OXA-69, OXA-23): 16 µg/mL
MIC (isolate Ab133, ST 2, ADC-30, OXA-66, OXA-58, TEM-12): 16 µg/mL
MIC (isolate Ab134, ST 2, ADC-30, OXA-66, OXA-58, TEM-12): 16 µg/mL
MIC (isolate Ab137, ST 85, ADC-2, OXA-94, OXA-23): 32 µg/mL
MIC (isolate Ab138, ST 745, ADC-30, OXA-66, OXA-58): 32 µg/mL
MIC (isolate Ab140, ST 85, ADC-2, OXA-94, OXA-23): 32 µg/mL
MIC (isolate Ab141, ST 745, ADC-30, OXA-66, OXA-58): 16 µg/mL
MIC (isolate Ab144, ST 745, ADC-30, OXA-66, OXA-58): 32 µg/mL
MIC (isolate Ab169, ST 2, ADC-30, OXA-66, OXA-23): 32 µg/mL
MIC (isolate Ab171, ST 2, ADC-30, OXA-66, OXA-23): 16 µg/mL
MIC (isolate Ab173, ST 2, ISAba1-ADC-30, OXA-66, OXA-23): 32 µg/mL
MIC (isolate Ab174, ST 2, ADC-30, OXA-66, OXA-23): 64 µg/mL
MIC (isolate Ab179, ST 2, ADC-30, OXA-66, OXA-23): 32 µg/mL
MIC (isolate Ab180, ST 2, ADC-30, OXA-66, OXA-24/40): 64 µg/mL
MIC (isolate Ab181, ST 2, ADC-30, OXA-66, OXA-23): 32 µg/mL
MIC (isolate Ab182, ST 2, ADC-30, OXA-66, OXA-23): 16 µg/mL
MIC (isolate Ab183, ST 2, ADC-30, OXA-66, OXA-23): 16 µg/mL
MIC (isolate Ab184, ST 2, ADC-30, OXA-66, OXA-23): 32 µg/mL
MIC (isolate Ab186, ST 2, ADC-30, OXA-66, OXA-23): 32 µg/mL
MIC (isolate Ab191, ST 2, ADC-30, OXA-66, OXA-23): 64 µg/mL
MIC (isolate Ab192, ST 2, ADC-30, OXA-66, OXA-23): 64 µg/mL
MIC (isolate Ab194, ST 2, ADC-30, OXA-66, OXA-23): 32 µg/mL
MIC (isolate Ab199, ST 2, ADC-30, OXA-66, OXA-23): 32 µg/mL
MIC (isolate Ab201, ST 2, ADC-30, OXA-66, OXA-23): 32 µg/mL
MIC (isolate Ab204, ST 2, ADC-30, OXA-66, OXA-23): 16 µg/mL
MIC distribution 0.12 (cumulative share of CRAB isolates (n = 67) at MIC 0.12 mg/L): 0
MIC distribution 0.25 (cumulative share of CRAB isolates (n = 67) at MIC 0.25 mg/L): 0
MIC distribution 0.5 (cumulative share of CRAB isolates (n = 67) at MIC 0.5 mg/L): 0
MIC distribution 1 (cumulative share of CRAB isolates (n = 67) at MIC 1 mg/L): 0
MIC distribution 2 (cumulative share of CRAB isolates (n = 67) at MIC 2 mg/L): 0
MIC distribution 4 (cumulative share of CRAB isolates (n = 67) at MIC 4 mg/L): 0
MIC distribution 8 (cumulative share of CRAB isolates (n = 67) at MIC 8 mg/L): 9.0
MIC distribution 16 (cumulative share of CRAB isolates (n = 67) at MIC 16 mg/L): 34.3
MIC distribution 32 (cumulative share of CRAB isolates (n = 67) at MIC 32 mg/L): 79.1
MIC distribution 64 (cumulative share of CRAB isolates (n = 67) at MIC 64 mg/L): 100
MIC distribution ≤0.06 (cumulative share of CRAB isolates (n = 67) at MIC ≤0.06 mg/L): 0
